pEC50, pIC50: −log10 of the molar value. ≈ marks a conversion by molar mass, not a printed value.

Results on 5 compounds are retold here after ChEMBL document CHEMBL6087456 (J Med Chem, 2025).

Series [1] in a line: Half life in human. The class given is ADME.
Series [2] relates to Plasmodium falciparum. The series can be described thus: Antiparasitic activity against asexual blood stage Plasmodium falciparum 3D7 incubated for 72 hrs by SYBR Green assay. Particulars: 3D7, 72 h. It is filed as functional, organism-based.
Series [3] is described as follows: Plasma protein binding in rat measured for 6 hrs by rapid equilibrium dialysis. The class given is ADME, cell-free. Background: In equilibrium dialysis only unbound substance equilibrates across the membrane.
Series [4] can be described thus: Cytotoxicity against human Jurkat cells by Cell Titer Glo assay. It is filed as toxicity, cell-based.
Series [5] can be described thus: Oral absorption in overnight-fasted male Sprague-Dawley rat at 3 mg/kg measured upto 72 hrs by LCMS analysis. The class given is ADME, organism-based. To be noted: in vivo.
Series [6] concerns Plasmodium falciparum. The series can be described thus: Antiparasitic activity against ring-stage Plasmodium falciparum D10 transformed with yeast DHODH incubated for 72 hrs by SYBR Green assay. It is filed as functional, organism-based. Particulars: D10, 72 h.
A short description of series [7]: Drug excretion in Sprague-Dawley rat urine at 1 mg/kg, iv. It is filed as ADME, organism-based. Particulars: read-out: Drug excretion.
Series [8] deals with Dihydroorotate dehydrogenase (quinone), mitochondrial (Homo sapiens, UniProt Q02127). As to the kind of experiment: Inhibition of C-terminal His6-tagged recombinant human DHODH (29 to 395 residues) N-terminally truncated soluble domain extracted from Escherichia coli phage resistant BL21-DE3 using CoQD/DHA/DCIP as substrates.
Sequence of Dihydroorotate dehydrogenase (quinone), mitochondrial (Q02127 whole entry, the tested form may be a part): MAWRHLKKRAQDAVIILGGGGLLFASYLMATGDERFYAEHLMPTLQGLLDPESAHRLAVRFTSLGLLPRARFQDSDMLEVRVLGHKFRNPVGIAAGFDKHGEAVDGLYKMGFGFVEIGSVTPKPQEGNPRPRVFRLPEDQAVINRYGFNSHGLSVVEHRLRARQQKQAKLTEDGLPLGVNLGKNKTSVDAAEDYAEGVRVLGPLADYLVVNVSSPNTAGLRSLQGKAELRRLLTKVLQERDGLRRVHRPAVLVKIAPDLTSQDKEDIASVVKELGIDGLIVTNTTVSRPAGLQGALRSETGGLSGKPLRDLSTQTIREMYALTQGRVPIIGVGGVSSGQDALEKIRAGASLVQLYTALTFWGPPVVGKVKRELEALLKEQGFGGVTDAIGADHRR
Series [9] can be described thus: Oral bioavailability in overnight-fasted male Sprague-Dawley rat at 3 mg/kg measured upto 72 hrs by LCMS analysis. It is filed as ADME, organism-based. Particulars: in vivo.
Series [10] deals with Albumin (Homo sapiens, UniProt P02768). As to the kind of experiment: Protein binding to albumin (unknown origin) in ALBUMAX medium. The class given is ADME. Particulars: read-out: PB (converted).
Sequence of Albumin (P02768 whole entry): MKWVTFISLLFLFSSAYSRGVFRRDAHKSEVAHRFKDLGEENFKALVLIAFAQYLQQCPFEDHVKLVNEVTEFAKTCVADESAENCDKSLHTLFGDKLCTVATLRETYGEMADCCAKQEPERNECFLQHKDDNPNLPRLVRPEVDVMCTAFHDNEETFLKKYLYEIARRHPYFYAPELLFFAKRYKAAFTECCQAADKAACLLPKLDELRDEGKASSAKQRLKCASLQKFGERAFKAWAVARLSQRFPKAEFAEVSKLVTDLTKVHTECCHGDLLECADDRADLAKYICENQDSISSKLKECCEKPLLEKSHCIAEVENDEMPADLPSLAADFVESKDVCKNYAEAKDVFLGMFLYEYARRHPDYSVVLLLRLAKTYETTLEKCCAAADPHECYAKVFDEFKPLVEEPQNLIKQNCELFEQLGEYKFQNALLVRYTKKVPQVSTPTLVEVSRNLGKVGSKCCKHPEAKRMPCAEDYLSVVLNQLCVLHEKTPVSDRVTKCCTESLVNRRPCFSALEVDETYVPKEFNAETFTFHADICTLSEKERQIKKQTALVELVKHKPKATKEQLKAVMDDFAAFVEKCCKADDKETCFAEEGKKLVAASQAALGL
Series [11] is described as follows: Cytotoxicity against human HepG2 cells by Cell Titer Glo assay. The class given is toxicity, cell-based. On the technique in general: ATP-based viability assays read luminescence as a measure of living cells.
Series [12] is described as follows: Kinetic solubility of compound at pH 6.5 measured after 30 mins by nephelometry. It is filed as physicochemical. Particulars: buffer, pH 6.5, read-out: Kinetic_solubility.
A short description of series [13]: Metabolic stability in human liver microsomes assessed as intrinsic clearance at 0.5 uM incubated for 60 mins in presence of NADPH by tandem quadrupole-Time of Flight MS. It is filed as ADME, Microsome. Particulars: 1 h. For orientation: Liver microsomes are vesicles of endoplasmic reticulum, rich in cytochrome P450 enzymes.
Series [14] in a line: Plasma protein binding in human measured for 6 hrs by rapid equilibrium dialysis. It is filed as ADME, cell-free.
Series [15] can be described thus: Partition coefficient, log D of compound at pH 7.4 measured after 24 hrs by LCMS analysis. The class given is physicochemical. Particulars: octanol/water, pH 7.4, 24 h.
Series [16] has as its target T1, Cytochrome P450 2B6 (Homo sapiens, UniProt P20813).
T1 sequence (P20813 whole entry): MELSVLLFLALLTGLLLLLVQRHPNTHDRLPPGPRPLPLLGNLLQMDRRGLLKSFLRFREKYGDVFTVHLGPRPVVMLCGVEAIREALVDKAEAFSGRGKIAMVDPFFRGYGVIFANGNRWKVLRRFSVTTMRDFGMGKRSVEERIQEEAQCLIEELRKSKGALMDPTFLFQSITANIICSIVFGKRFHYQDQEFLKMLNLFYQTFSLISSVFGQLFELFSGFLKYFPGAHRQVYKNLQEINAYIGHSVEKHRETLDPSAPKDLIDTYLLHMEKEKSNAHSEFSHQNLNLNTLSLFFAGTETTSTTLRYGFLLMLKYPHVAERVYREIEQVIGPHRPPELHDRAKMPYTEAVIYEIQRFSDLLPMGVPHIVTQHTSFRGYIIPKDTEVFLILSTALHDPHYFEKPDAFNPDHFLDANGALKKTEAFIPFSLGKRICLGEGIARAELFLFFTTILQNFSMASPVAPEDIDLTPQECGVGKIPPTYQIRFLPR
As to the kind of experiment: Inhibition of CYP2B6 in human liver microsomes. The class given is ADME, Microsome.

The target in series [17] is Cytochrome P450 3A4 (Homo sapiens, UniProt P08684). As to the kind of experiment: Inhibition of CYP3A4 in human liver microsomes. The class given is ADME, Microsome.
Sequence of Cytochrome P450 3A4 (P08684 whole entry): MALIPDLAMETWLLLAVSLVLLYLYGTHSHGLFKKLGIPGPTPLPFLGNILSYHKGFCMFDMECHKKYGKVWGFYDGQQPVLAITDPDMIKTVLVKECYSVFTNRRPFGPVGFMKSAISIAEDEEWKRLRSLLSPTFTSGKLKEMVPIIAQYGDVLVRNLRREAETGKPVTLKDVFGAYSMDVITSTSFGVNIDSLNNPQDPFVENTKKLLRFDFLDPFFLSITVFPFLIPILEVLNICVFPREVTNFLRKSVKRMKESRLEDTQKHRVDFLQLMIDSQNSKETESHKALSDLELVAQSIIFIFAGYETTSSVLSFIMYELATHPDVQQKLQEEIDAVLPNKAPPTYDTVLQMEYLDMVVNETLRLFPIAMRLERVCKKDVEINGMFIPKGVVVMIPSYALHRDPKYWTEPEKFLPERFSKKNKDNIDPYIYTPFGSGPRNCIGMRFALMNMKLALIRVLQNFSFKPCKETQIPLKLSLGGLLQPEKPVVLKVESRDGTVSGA
The target in series [18] is T2, Cytochrome P450 1A2 (Homo sapiens, UniProt P05177).
T2 sequence (P05177 whole entry): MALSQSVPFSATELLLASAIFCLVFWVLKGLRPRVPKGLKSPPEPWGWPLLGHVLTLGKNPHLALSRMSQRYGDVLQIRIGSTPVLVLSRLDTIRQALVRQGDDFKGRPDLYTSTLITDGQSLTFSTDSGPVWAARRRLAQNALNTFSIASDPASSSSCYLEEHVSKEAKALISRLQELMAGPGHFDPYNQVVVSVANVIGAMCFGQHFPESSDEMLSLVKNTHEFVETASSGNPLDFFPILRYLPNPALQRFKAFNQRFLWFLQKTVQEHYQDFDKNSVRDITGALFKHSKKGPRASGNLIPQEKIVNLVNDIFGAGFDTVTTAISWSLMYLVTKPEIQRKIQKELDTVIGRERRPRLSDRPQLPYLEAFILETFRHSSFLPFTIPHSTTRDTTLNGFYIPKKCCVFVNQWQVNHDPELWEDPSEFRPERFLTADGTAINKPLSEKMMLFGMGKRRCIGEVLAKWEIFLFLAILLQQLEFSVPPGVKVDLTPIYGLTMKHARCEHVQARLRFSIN
The series can be described thus: Inhibition of CYP1A2 in human liver microsomes. The class given is ADME, Microsome.

Series [19] can be described thus: Ratio of drug concentration in Sprague-Dawley rat brain to plasma at 1 uM measured for 5 to 60 mins by LCMS analysis. It is filed as ADME, cell-free. To be noted: time 5-60 min.
Series [20] is described as follows: Protein binding in human hepatocytes. It is filed as ADME, cell-based, Hepatocyte. Particulars: read-out: PB (converted).
The target in series [21] is Cytochrome P450 2D6 (Homo sapiens, UniProt P10635). The series can be described thus: Inhibition of CYP2D6 in human liver microsomes. The class given is ADME, Microsome.
Sequence of Cytochrome P450 2D6 (P10635 whole entry): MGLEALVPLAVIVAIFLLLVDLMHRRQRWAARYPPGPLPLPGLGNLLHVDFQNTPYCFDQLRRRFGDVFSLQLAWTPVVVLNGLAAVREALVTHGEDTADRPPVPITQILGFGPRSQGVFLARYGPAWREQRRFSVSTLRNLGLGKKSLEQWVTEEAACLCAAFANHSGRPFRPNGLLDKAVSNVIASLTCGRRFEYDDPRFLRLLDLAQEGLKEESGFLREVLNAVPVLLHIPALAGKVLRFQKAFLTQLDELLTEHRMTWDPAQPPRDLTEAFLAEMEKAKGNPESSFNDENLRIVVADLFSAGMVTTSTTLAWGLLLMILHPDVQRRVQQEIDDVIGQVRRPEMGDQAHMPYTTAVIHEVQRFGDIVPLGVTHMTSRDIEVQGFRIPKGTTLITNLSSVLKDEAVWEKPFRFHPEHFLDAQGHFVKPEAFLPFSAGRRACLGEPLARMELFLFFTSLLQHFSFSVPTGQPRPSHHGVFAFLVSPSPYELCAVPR
The nature of series [22]: Permeability across apical to basal side in human Caco-2 cells. The class given is ADME, cell-based.
The target of series [23] is Cytochrome P450 2C19 (Homo sapiens, UniProt P33261). As to the kind of experiment: Inhibition of CYP2C19 in human liver microsomes. It is filed as ADME, Microsome.
Sequence of Cytochrome P450 2C19 (P33261 whole entry): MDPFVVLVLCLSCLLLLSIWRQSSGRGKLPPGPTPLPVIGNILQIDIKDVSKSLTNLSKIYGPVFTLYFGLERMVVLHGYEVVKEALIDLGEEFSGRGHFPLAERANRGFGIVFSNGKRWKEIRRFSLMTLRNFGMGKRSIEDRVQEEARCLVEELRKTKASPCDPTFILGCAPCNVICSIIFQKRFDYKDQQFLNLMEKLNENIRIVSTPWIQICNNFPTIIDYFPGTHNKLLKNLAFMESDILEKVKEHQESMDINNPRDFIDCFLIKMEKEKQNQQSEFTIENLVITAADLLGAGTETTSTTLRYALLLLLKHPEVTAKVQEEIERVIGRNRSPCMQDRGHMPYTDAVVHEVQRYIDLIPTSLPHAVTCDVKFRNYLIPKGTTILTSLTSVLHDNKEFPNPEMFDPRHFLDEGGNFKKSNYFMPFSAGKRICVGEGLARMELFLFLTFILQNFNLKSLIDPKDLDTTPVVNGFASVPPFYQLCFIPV
Series [24] in a line: Cmax in overnight-fasted male Sprague-Dawley rat at 3 mg/kg, po or 1 mg/kg, iv measured upto 72 hrs by LCMS analysis. The class given is ADME, organism-based. To be noted: in vivo.
The nature of series [25]: Metabolic stability in human hepatocytes assessed as intrinsic clearance at 0.5 uM measured per 1.5 million cells incubated for 240 mins by tandem quadrupole-Time of Flight MS. The class given is ADME, cell-based, Hepatocyte. To be noted: 4 h.
Series [26] is described as follows: Metabolic stability in Sprague-Dawley rat hepatocytes assessed as intrinsic clearance at 0.5 uM measured per 0.5 million cells incubated for 240 mins by tandem quadrupole-Time of Flight MS. It is filed as ADME, cell-based, Hepatocyte. Particulars: 4 h.
Series [27] concerns the target T3, Cytochrome P450 2C8 (Homo sapiens, UniProt P10632).
T3 sequence (P10632 whole entry): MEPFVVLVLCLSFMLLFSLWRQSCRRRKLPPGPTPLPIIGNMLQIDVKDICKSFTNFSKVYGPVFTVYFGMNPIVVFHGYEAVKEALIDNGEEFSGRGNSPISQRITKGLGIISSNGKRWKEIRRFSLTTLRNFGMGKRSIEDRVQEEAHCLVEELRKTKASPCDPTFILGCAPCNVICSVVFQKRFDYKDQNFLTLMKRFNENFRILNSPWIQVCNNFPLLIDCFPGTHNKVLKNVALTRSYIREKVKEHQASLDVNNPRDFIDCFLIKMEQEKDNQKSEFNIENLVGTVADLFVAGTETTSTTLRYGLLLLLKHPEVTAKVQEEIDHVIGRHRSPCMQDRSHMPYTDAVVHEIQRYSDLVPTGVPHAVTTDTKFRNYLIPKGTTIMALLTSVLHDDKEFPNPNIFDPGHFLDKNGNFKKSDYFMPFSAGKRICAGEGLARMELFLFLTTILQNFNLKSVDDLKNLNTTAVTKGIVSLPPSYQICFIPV
As to the kind of experiment: Inhibition of CYP2C8 in human liver microsomes. It is filed as ADME, Microsome.

The test system of series [28] is Plasmodium falciparum. As to the kind of experiment: Antiparasitic activity against Plasmodium falciparum 3D7 assessed as lag time before killing at 10 times EC50 pretreated for 120 hrs followed by compound removal and replacement of media without compound measured after 28 days by cell killing assay. The class given is functional.
For series [29], the system named is Plasmodium falciparum. The series can be described thus: Antiparasitic activity against Plasmodium falciparum 3D7 assessed as parasitic reduction ratio at 10 times EC50 pretreated for 120 hrs followed by compound removal and replacement of media without compound measured after 28 days by cell killing assay. It is filed as functional.
Series [30] can be described thus: Half life in overnight-fasted male Sprague-Dawley rat at 3 mg/kg, po or 1 mg/kg, iv measured upto 72 hrs by LCMS analysis. It is filed as ADME, organism-based. Particulars: in vivo.

On to `Cc1c(C2(c3ccc(C(F)(F)F)nc3)CC2)c[nH]c1C(=O)N[C@H](C)c1nc[nH]n1`, for which the half-life (commonly how long it takes for the measured level to halve) in series [1] is above 100 h.

In the case of `CC[C@@](O)(c1cnc(C(F)(F)F)c(Cl)c1)c1c2cnn(C3CC3)c(=O)c2nn1C`, the negative logarithm of the EC50 (pEC50) (in general, the negative decadic logarithm of the EC50, by convention in mol/L) in series [2] is 8.52; in [6] it was 5.42. For the same compound, the PPB in series [3] was found to be 84.9%; in series [14], 78.2%. The cytotoxic concentration (CC50) in series [4] and in series [11] was above 20 µM in each case. The compound further gave a Fa at 72 h in series [5] of 81%. Also, in series [7], the dose excreted is below 1%. Besides, the pIC50 (usually −log10 of the IC50, conventionally taken in molar units) in series [8] is below 4.52. Also, the F in series [9] is listed as 80%. Also, the fraction unbound in series [10] is 0.709. Besides, the solubility kinetic at 0.5 h in series [12] was 25 µM (≈ 10.7 µg/mL). For the same compound, in series [13], the “intrinsic clearance (CLint)” value was below 3 µL/min/mg.

With `Cn1nc2c(=O)n(C3CC3)ccc2c1[C@](O)(c1cnc(C(F)(F)F)c(Cl)c1)C(F)(F)F`, the pEC50 in [2] was 9.00. Also, the logD – broadly, lipophilicity at a set pH, counting ionised and neutral species – in series [15] was determined as 2.3. Further, the negative-log IC50 (pIC50) in series [16] is below 4.70; in series [17], below 4.70; in [18], below 4.70; in series [8] it was below 4.52; in [21], below 4.70; in series [23], 5.17. Further, the results for the PPB in series [3] and in [14] were 75.9% and 68.5%, respectively. For the same compound, the cytotoxic concentration (CC50) in series [4] and in series [11] was above 20 µM each time. For the same compound, the Fa at 72 h in [5] is 100%. Besides, in series [19], the BPR came out at 0.79. In addition, the dose excreted in series [7] is below 1%. Further, the fraction unbound in series [20] was 0.249; in [10], 0.338. Besides, the F in [9] is reported as above 63%. For the same compound, the permeability result in series [22] is “Permeable”. In series [12], the solubility kinetic at 0.5 h came to 20 µM (≈ 9.34 µg/mL). Besides, in series [13], the “intrinsic clearance (CLint)” value is below 3 µL/min/mg.

In series [2], `CCn1cc(C2CC2)c2c(Cc3ccc(C(F)(F)F)nc3)n(C)nc2c1=O` had a pEC50 of 7.66. In addition, the concentration in [24] peaked (Cmax) at 4.4 µM. In addition, the CLH in [25] was found to be 1.2 µL/min; in series [26], 2.3 µL/min. The Fa at 72 h in series [5] was determined as 71%. The BPR in [19] is listed as 0.65. For the same compound, in [8], the pIC50 was below 4.00. For the same compound, the F in [9] is on record as 65%. Also, the fraction unbound in series [10] was 0.5. In addition, in series [12], the solubility kinetic at 0.5 h came out at 130 µM (≈ 48.9 µg/mL). The “intrinsic clearance (CLint)” value in series [13] is 9 µL/min/mg.

Regarding `Cn1nc2c(=O)n(C3CC3)ncc2c1[C@](N)(c1ccc(C(F)(F)F)c(Cl)c1)C1CC1`, in series [2], the negative logarithm of the EC50 (pEC50) is 8.15. Moreover, the pIC50 in [16] was below 4.70; in series [17], below 4.70; in series [27] it was 5.15; in series [18], below 4.70; in series [21] it was below 4.70. The figures for the PPB in [3] and in series [14] were 86% and 90.8%, respectively. The CC50 in series [4] and in [11] was above 20 µM each time. Also, the Time in [28] was around 26 h. Besides, the “log(activity)” value in series [29] amounted to 3.1. In series [5], the Fa at 72 h turned out to be 81%. The dose excreted in series [7] was below 1%. Moreover, the fraction unbound in [20] was 0.335; in series [10], 0.239. In addition, the F in [9] is given as 79%. This compound also returned a t1/2 in series [30] of 17 h. The solubility kinetic at 0.5 h in [12] amounted to 12.5 µM (≈ 5.47 µg/mL). For the same compound, the “intrinsic clearance (CLint)” value in series [13] is below 3 µL/min/mg.
